Reference: ChEMBL document CHEMBL3046890, “Synthesis and Herbicidal Activity of Sulfonylureas; SL-950 and Its Related Compounds” (1995)

Assays:
Assay type in all cases: functional
Cyperus microiria [1] = assay: Post-emergence herbicidal activity against three-leaf stage Cyperus microiria assessed as efficacy of weed growth control at 80 g ai/ha under greenhouse conditions
Chenopodium album [2] = assay: Post-emergence herbicidal activity against two-leaf stage Chenopodium album assessed as efficacy of weed growth control at 60 g ai/ha under greenhouse conditions
Senna tora [3] = assay: Post-emergence herbicidal activity against one-leaf stage Senna tora assessed as efficacy of weed growth control at 80 g ai/ha under greenhouse conditions
Abutilon theophrasti [4] = assay: Post-emergence herbicidal activity against one-leaf stage Abutilon theophrasti (velvetleaf) assessed as efficacy of weed growth control at 60 g ai/ha under greenhouse conditions
Senna tora [5] = assay: Post-emergence herbicidal activity against one-leaf stage Senna tora assessed as efficacy of weed growth control at 750 g ai/ha under greenhouse conditions
Cyperus rotundus = assay: Post-emergence herbicidal activity against four to five-leaf stage Cyperus rotundus assessed as efficacy of weed growth control at 750 g ai/ha under greenhouse conditions
Capsella bursa-pastoris [6] = assay: Post-emergence herbicidal activity against four-leafstage Capsella bursa-pastoris assessed as efficacy of weed growth control at 60 g ai/ha under greenhouse conditions
Amaranthus viridis [7] = assay: Post-emergence herbicidal activity against three-leaf stage Amaranthus viridis assessed as efficacy of weed growth control at 80 g ai/ha under greenhouse conditions
Echinochloa crus-galli [8] = assay: Post emergence herbicidal activity against three-leaf stage Echinochloa crus-galli (barnyard grass) assessed as efficacy of weed growth control at 40 g ai/ha under greenhouse conditions
Galinsoga quadriradiata [9] = assay: Post-emergence herbicidal activity against four-leafstage of Galinsoga quadriradiata assessed as efficacy of weed growth control at 40 g ai/ha under greenhouse conditions
Portulaca oleracea [10] = assay: Post-emergence herbicidal activity against three-leaf stage Portulaca oleracea assessed as efficacy of weed growth control at 40 g ai/ha under greenhouse conditions
Amaranthus viridis [11] = assay: Post-emergence herbicidal activity against three-leaf stage Amaranthus viridis assessed as efficacy of weed growth control at 40 g ai/ha under greenhouse conditions
Avena fatua = assay: Post emergence herbicidal activity against three-leaf stage Avena fatua assessed as efficacy of weed growth control at 40 g ai/ha under greenhouse conditions
Sorghum halepense [12] = assay: Post emergence herbicidal activity against four to five-leaf stage Sorghum halepense (Johnson grass) assessed as efficacy of weed growth control at 750 g ai/ha under greenhouse conditions
Chenopodium album [13] = assay: Post-emergence herbicidal activity against two-leaf stage Chenopodium album assessed as efficacy of weed growth control at 80 g ai/ha under greenhouse conditions
Setaria viridis [14] = assay: Post-emergence herbicidal activity against two-leaf stage Setaria viridis (green foxtail) assessed as efficacy of weed growth control at 40 g ai/ha under greenhouse conditions
Galinsoga quadriradiata [15] = assay: Post-emergence herbicidal activity against four-leafstage of Galinsoga quadriradiata assessed as efficacy of weed growth control at 750 g ai/ha under greenhouse conditions
Solanum nigrum [16] = assay: Post emergence herbicidal activity against four-leaf stage Solanum nigrum (black nightshade) assessed as efficacy of weed growth control at 750 g ai/ha under greenhouse conditions
Echinochloa crus-galli [17] = assay: Post-emergence herbicidal activity against three-leaf stage Echinochloa crus-galli (barnyard grass) assessed as efficacy of weed growth control at 80 g ai/ha under greenhouse conditions
Amaranthus viridis [18] = assay: Post-emergence herbicidal activity against three-leaf stage Amaranthus viridis assessed as efficacy of weed growth control at 60 g ai/ha under greenhouse conditions
Commelina communis [19] = assay: Post emergence herbicidal activity against two-leaf stage Commelina communis (Asiatic dayflower) assessed as efficacy of weed growth control at 80 g ai/ha under greenhouse conditions
Zea mays = assay: Post emergence phyototoxic activity against Zea mays (maize) plants assessed as inhibition of plant growth at 125 g ai/ha measured 22 to 37 days after compound application under greenhouse conditions; conditions: read-out: GI
Elymus repens = assay: Post-emergence herbicidal activity against three to four-leaf stage Elymus repens (couch grass) assessed as efficacy of weed growth control at 750 g ai/ha under greenhouse conditions
Portulaca oleracea [20] = assay: Post-emergence herbicidal activity against three-leaf stage Portulaca oleracea assessed as efficacy of weed growth control at 60 g ai/ha under greenhouse conditions
Solanum nigrum [21] = assay: Post emergence herbicidal activity against four-leaf stage Solanum nigrum (black nightshade) assessed as efficacy of weed growth control at 40 g ai/ha under greenhouse conditions
Abutilon theophrasti [22] = assay: Post-emergence herbicidal activity against one-leaf stage Abutilon theophrasti (velvetleaf) assessed as efficacy of weed growth control at 40 g ai/ha under greenhouse conditions
Persicaria lapathifolia = assay: Post-emergence herbicidal activity against three-leaf stage Persicaria lapathifolia assessed as efficacy of weed growth control at 80 g ai/ha under greenhouse conditions
Setaria viridis [23] = assay: Post-emergence herbicidal activity against two-leaf stage Setaria viridis (green foxtail) assessed as efficacy of weed growth control at 60 g ai/ha under greenhouse conditions
Cynodon dactylon = assay: Post-emergence herbicidal activity against 15 cm leaf stage Cynodon dactylon assessed as efficacy of weed growth control at 40 g ai/ha under greenhouse conditions
Commelina communis [24] = assay: Post emergence herbicidal activity against two-leaf stage Commelina communis (Asiatic dayflower) assessed as efficacy of weed growth control at 60 g ai/ha under greenhouse conditions
Sorghum halepense [25] = assay: Post emergence herbicidal activity against four to five-leaf stage Sorghum halepense (Johnson grass) assessed as efficacy of weed growth control at 40 g ai/ha under greenhouse conditions
Digitaria sanguinalis = assay: Post-emergence herbicidal activity against two-leaf stage Digitaria sanguinalis (hairy crabgrass) assessed as efficacy of weed growth control at 60 g ai/ha under greenhouse conditions
Cyperus microiria [26] = assay: Post-emergence herbicidal activity against three-leaf stage Cyperus microiria assessed as efficacy of weed growth control at 40 g ai/ha under greenhouse conditions
Amaranthus viridis [27] = assay: Post-emergence herbicidal activity against three-leaf stage Amaranthus viridis assessed as efficacy of weed growth control at 750 g ai/ha under greenhouse conditions
Eleusine indica = assay: Post emergence herbicidal activity against three-leaf stage Eleusine indica assessed as efficacy of weed growth control at 40 g ai/ha under greenhouse conditions
Capsella bursa-pastoris [28] = assay: Post-emergence herbicidal activity against four-leafstage Capsella bursa-pastoris assessed as efficacy of weed growth control at 750 g ai/ha under greenhouse conditions
Senna tora [29] = assay: Post-emergence herbicidal activity against one-leaf stage Senna tora assessed as efficacy of weed growth control at 40 g ai/ha under greenhouse conditions
Sida spinosa = assay: Post-emergence herbicidal activity against two-leaf stage Sida spinosa assessed as efficacy of weed growth control at 40 g ai/ha under greenhouse conditions
Galinsoga quadriradiata [30] = assay: Post-emergence herbicidal activity against four-leafstage of Galinsoga quadriradiata assessed as efficacy of weed growth control at 80 g ai/ha under greenhouse conditions
Sorghum halepense [31] = assay: Post emergence herbicidal activity against four to five-leaf stage Sorghum halepense (Johnson grass) assessed as efficacy of weed growth control at 80 g ai/ha under greenhouse conditions
Echinochloa crus-galli [32] = assay: Post emergence herbicidal activity against three-leaf stage Echinochloa crus-galli (barnyard grass) assessed as efficacy of weed growth control at 750 g ai/ha under greenhouse conditions

`COc1cc(OC)nc(NC(=O)NS(=O)(=O)c2ncccc2C(=O)N(C)C)n1` [NICOSULFURON] showed an Efficacy (Cyperus microiria [1]) of 95%, an Efficacy (Chenopodium album [2]) of 70% and an Efficacy (Senna tora [3]) of 70%. For the same compound, the Efficacy (Abutilon theophrasti [4]) was 50%, the Efficacy (Senna tora [5]) was less than 50% and the Efficacy (Cyperus rotundus) was 50%. For the same compound, the Efficacy (Capsella bursa-pastoris [6]) was 95%, the Efficacy (Amaranthus viridis [7]) was 95% and the Efficacy (Echinochloa crus-galli [8]) was 95%. The Efficacy (Galinsoga quadriradiata [9]) was 70%, the Efficacy (Portulaca oleracea [10]) was 70% and the Efficacy (Amaranthus viridis [11]) was 95%. The Efficacy (Avena fatua) was 95%, the Efficacy (Sorghum halepense [12]) was less than 50% and the Efficacy (Chenopodium album [13]) was 95%. For the same compound, the Efficacy (Setaria viridis [14]) was 95%, the Efficacy (Galinsoga quadriradiata [15]) was 95% and the Efficacy (Solanum nigrum [16]) was 95%. The Efficacy (Echinochloa crus-galli [17]) was 95%, the Efficacy (Amaranthus viridis [18]) was 95% and the Efficacy (Commelina communis [19]) was 95%. It also gave an inhibition of growth at 125 g/ha (Zea mays) of 0%, an Efficacy (Elymus repens) of less than 50% and an Efficacy (Portulaca oleracea [20]) of 95%. It also gave an Efficacy (Solanum nigrum [21]) of 50%, an Efficacy (Abutilon theophrasti [22]) of 50% and an Efficacy (Persicaria lapathifolia) of 95%. It also gave an Efficacy (Setaria viridis [23]) of 95%, an Efficacy (Cynodon dactylon) of less than 50% and an Efficacy (Commelina communis [24]) of 95%. The Efficacy (Sorghum halepense [25]) was 70%, the Efficacy (Digitaria sanguinalis) was 95% and the Efficacy (Cyperus microiria [26]) was 95%. It also gave an Efficacy (Amaranthus viridis [27]) of 50%, an Efficacy (Eleusine indica) of 95% and an Efficacy (Capsella bursa-pastoris [28]) of 95%. It also gave an Efficacy (Senna tora [29]) of 50%, an Efficacy (Sida spinosa) of 50% and an Efficacy (Galinsoga quadriradiata [30]) of 95%. The Efficacy (Sorghum halepense [31]) was 95% and the Efficacy (Echinochloa crus-galli [32]) was 50%.
